Experimental data from patent publication US9574239B2, “MicroRNA signatures in human ovarian cancer” (The Ohio State University Research Foundation, priority 2007, dated 2017).

Legend:
Type in all cases: cell-based, human
[1] = system: OVCAR3 cells; assay: Northern blot of miR-21 in OVCAR3 cells after demethylating treatment; settings: OVCAR3, before vs after treatment; FIG. 5D
Procedure: Northern blot analysis was performed as previously described. RNA samples (10 μg each) were run on 15% Polyacrylamide, 7M Urea Criterion pre-casted gels (Bio-Rad, Hercules, Calif.) and transferred onto Hybond-N+ membranes (Amersham, Piscataway, N.J.). The hybridization was performed at 370 C in ULTRAhyb-Oligo hybrization buffer (Ambion, Austin, Tex.) for 16 hours. Membranes were washed at 370 C, twice with 2×SSPE and 0.5% SDS. 5S RNA or EtBr gel staining were used to normalize 200 ng of each probe was end labeled with 100 μCi [gamma-32P]-ATP using the polynucleotide kinase (Roche). Blots were stripped in boiling 0.1% SDS for 10 minutes before re-hybridization. OVCAR3 cells were seeded at low density 48 h before treatment with 10 μM 5′aza-2′deoxycytidine (5′-AZA, Sigma). After 24 h of treatment, cells were collected and total RNA was isolated using Trizol reagent (Invitrogen).

[2] = system: OVCAR3 cells; assay: Real-Time PCR of miR expression levels in OVCAR3 cells after demethylating treatment; settings: OVCAR3, before vs after treatment; FIG. 5C
Procedure: Relative expression was calculated using the comparative Ct method.

[3] = system: OVCAR3 cells; assay: miR expression by microarray profiling of OVCAR3 cells before and after demethylating treatment; settings: 10 μM, 24 h
Procedure: Total RNA isolation was performed with Trizol (Invitrogen, Carlsbad, Calif.) according to the manufacturer's instructions. RNA labeling and hybridization on microRNA microarray chips were performed as previously described (28) using 5 μg of total RNA from each sample. Hybridization was carried out on our microRNA microarray (Ohio State Comprehensive Cancer Center, version 2.0), which contains probes for 460 mature microRNAs spotted in quadruplicate (235 homo sapiens, 222 mus musculus, and three Arabidopsis thaliana) with annotated active sites. Often, more than one probe set exists for a given mature microRNA. Additionally, there are quadruplicate probes corresponding to most precursor microRNAs. Hybridization signals were detected with Streptavidin-Alexa647 conjugate and scanned images (Axon 4000B) were quantified using the Genepix 6.0 software (Axon Instruments, Sunnyvale, Calif.).
Microarray images were analyzed by using GENEPIX PRO. Average values of the replicate spots of each miRNA were background subtracted, normalized, and subjected to further analysis. We performed a global median normalization of Ovary microarray data by using BRB ArrayTools developed by Richard Simon & Amy Peng Lam (29). Absent calls were thresholded to 4.5 before subsequent statistical analysis. This level is the average minimum intensity level detected in the experiments. miRNA nomenclature was according to the Genome Browser (genome.ucsc.edu) and the miRNA database at Sanger Center (microrna.sanger.ac.uk/); in case of discrepancies the miRNA database was followed. Differentially expressed miRNAs were identified by using the t test procedure within significance analysis of microarrays (SAM), a method developed at Stanford University Labs based on recent paper of Tusher, Tibshirani and Chu (30).
OVCAR3 cells were seeded at low density 48 h before treatment with 10 μM 5′aza-2′deoxycytidine (5′-AZA, Sigma). After 24 h of treatment, cells were collected and total RNA was isolated using Trizol reagent (Invitrogen). 3 replicates for both untreated cells and AZA-treated cells were used to evaluate the miR expression by Microarray profiling. Differentially expressed microRNAs were identified by using univariate two-classes T-test with random variance model.

[4] = OVCAR3, before vs after treatment, p<0.001

## Nc1ncn([C@H]2C[C@H](O)[C@@H](CO)O2)c(=O)n1 [5-aza-2′-deoxycytidine]
[1]
  miR-21 expression (Northern Blot, normalized with EtBr gel staining): up-modulation
[2]
  expression levels of the 5 most significantly induced miRs (Real-Time PCR): up-modulation
[3]; OVCAR3, before vs after treatment
  expression of miR-21, miR-203, miR-146b, miR-205, miR-30-5p and miR-30c: most significant induced upon treatment
[3]; [4]
  human microRNAs differentially expressed (number): 11
  human microRNAs down-modulated (number): 2
  human microRNAs up-modulated (number): 9
[3]; OVCAR3 cells
  levels of miR-21, miR-203 and miR-205 after demethylating treatment: significantly increased
